Source: patent US12030895B2, “Method for preparing heterocyclic derivative compound, composition containing same compound, and hydrate of same compound” (JW PHARMACEUTICAL CORPORATION, priority 2017, dated 2024)
Like-named read-outs stand apart in the source and are kept apart here.

How the values were obtained:
[1] = Solubility test in FeSSIF; format: physicochemical; conditions: At 240 minutes; 50 mL FeSSIF (pH 5.0), 37° C., paddle 50 rpm; 10 mg compound + 100 mg lactose
Procedure: The solubility test was carried out using 50 mL of FeSSIF (pH 5.0) as a medium and setting the paddle speed at 50 rpm under the operation condition at 37° C.

[2] = Physical stability to processing factors (grinding, granulating, tableting); format: physicochemical
From the text: In addition, the physical stability to processing factors in the preparation of the above 1.5 hydrate and the non-solvate were compared, and the results are shown in Table 2 below.

gout patients [3] = test: Serum uric acid level in gout patients per dose; format: in vivo, human; conditions: 14 days; for patients whose serum uric acid level fell below <5.0 mg/dL / percentage of patients whose serum uric acid level fell below <5.0 mg/dL: measured 15th day
Procedure: The compound was orally administered at doses of 0.25 mg (N=12), 0.5 mg (N=12), 1 mg (N=12) and 2 mg (N=12) based on the active ingredient (3,5-dibromo-4-hydroxyphenyl)(2,3-dihydro-4H-pyrido[4,3-b][1,4]oxazin-4-yl)-methanone (Formula I), and placebo (N=12), for 14 days. The efficacy and safety of the compound on the serum uric acid (UA) level was evaluated in comparison with the placebo.
Serum uric acid levels were measured on the 15th day after administration, and the percentages of patients whose serum uric acid level fell below <6.0 mg/dL and below <5.0 mg/dL were determined and shown in FIG. 13. […] From the above results, it could be understood that a dose less than 2 mg is not effective in the treatment of diseases such as hyperuricemia and gout.
In addition, for a total of 68 gout patients, (3,5-dibromo-4-hydroxyphenyl)(2,3-dihydro-4H-pyrido[4,3-b][1,4]oxazin-4-yl)-methanone hydrochloride 1.5 hydrate according to the present invention was administered. The compound was orally administered at doses of 3 mg (N=13), 5 mg (N=14), 7 mg (N=15) and 10 mg (N=15) based on the active ingredient (3,5-dibromo-4-hydroxyphenyl)(2,3-dihydro-4H-pyrido[4,3-b][1,4]oxazin-4-yl)-methanone (Formula I), and placebo (N=11), for 14 days. The efficacy and safety of the compound on the serum uric acid level was evaluated in comparison with the placebo.
Serum uric acid levels were measured on the 15th day after administration, and the percentages of patients whose serum uric acid level fell below <6.0 mg/dL and below <5.0 mg/dL were determined and shown in FIG. 14.

gout patients [4] = test: Adverse drug reaction per dose in gout patients; format: in vivo, human; conditions: oral, 14 days
Procedure: The compound was orally administered at doses 3 mg (N=14), 5 mg (N=15), 7 mg (N=17) and 10 mg (N=17) based on the active ingredient (3,5-dibromo-4-hydroxyphenyl)(2,3-dihydro-4H-pyrido[4,3-b][1,4]oxazin-4-yl)-methanone (Formula I), and placebo (N=13), for 14 days, and the adverse drug reaction was investigated.

gout patients [5] = test: Urinary creatinine levels in gout patients; format: in vivo, human; conditions: 10 mg, oral, 14 days
Procedure: Furthermore, urinary creatinine levels were also measured in the same patients. The number of cases in which creatinine is increased by more than 0.3 mg/dL or more than 1.5 times compared to baseline is shown in Table 4 below.

[6] = for form in which the salt was obtained: salt forms prepared by the same process; for Initial purity: before storage
[7] = 30% v/w solvent, granulated about 2 min, dried at 50° C.

With `Cl.Cl.O.O.O.O=C(c1cc(Br)c(O)c(Br)c1)N1CCOc2ccncc21.O=C(c1cc(Br)c(O)c(Br)c1)N1CCOc2ccncc21` [hydrochloride 1.5 hydrate, (3,5-dibromo-4-hydroxyphenyl)(2,3-dihydro-4H-pyrido[4,3-b][1,4]oxazin-4-yl)-methanone hydrochloride 1.5 hydrate] the solubility [1] was “about 125 μg/mL”, the “Crystallinity change after Tableting” value ([2]; 2 tons of pressure for 5 sec, 7 mm punches, powder X-ray diffractometer) was “Δ5% (94→89%)” and the “Solid form after Granulating with 1:1 of water and ethanol” value [2, 7] was “Unchanged”. The “Solid form after Granulating with water” value [2, 7] was “Unchanged”, the “solid forms in granulating” value ([2]; granulating) was “no change” and the “Crystallinity change after Grinding” value ([2]; ground about 2 min using a mortar, powder X-ray diffractometer) was “Δ3% (94→91%)”. The “patients whose serum uric acid level fell below <5.0 mg/dL” value (gout patients [3]; 0.25 mg oral) was “no patient”, the “patients whose serum uric acid level fell below <5.0 mg/dL” value (gout patients [3]; 0.5 mg oral) was “no patient” and the “patients whose serum uric acid level fell below <5.0 mg/dL” value (gout patients [3]; 1 mg oral) was “no patient”. The “percentage of patients whose serum uric acid level fell below <5.0 mg/dL” value (shortened to “percentage”) (gout patients [3]; 2 mg oral) was “about 8%”, the “percentage” value (gout patients [3]; 3 mg oral) was “approximately 23%” and the “Patients whose serum uric acid level fell below <6.0 mg/dL” value (gout patients [3]; 3 mg, 5 mg, 7 mg and 10 mg, oral) was “appeared in all experimental doses”. For the same molecule, the “percentage” value (gout patients [3]; 5 mg oral) was ~64%, the “percentage” value (gout patients [3]; 7 mg oral) was ~80% and the “percentage” value (gout patients [3]; 10 mg oral) was ~73%. The “arthralgia (adverse drug reaction)” value (gout patients [4]; 3 mg (N = 14)) was 0, the “joint swelling (adverse drug reaction)” value (gout patients [4]; 3 mg (N = 14)) was 0 and the “incidence of adverse events such as arthralgia and joint swelling” value (gout patients [4]; 3 mg, 5 mg, 7 mg and 10 mg) was “no or very low incidence”. For the same molecule, the “arthralgia (adverse drug reaction)” value (gout patients [4]; 5 mg (N = 15)) was 0, the “joint swelling (adverse drug reaction)” value (gout patients [4]; 5 mg (N = 15)) was 0 and the “arthralgia (adverse drug reaction)” value (gout patients [4]; 7 mg (N = 17)) was 0. For the same molecule, the “joint swelling (adverse drug reaction)” value (gout patients [4]; 7 mg (N = 17)) was 0, the “arthralgia (adverse drug reaction), cases” value (gout patients [4]; 10 mg (N = 17)) was “[3 cases]” and the “arthralgia (adverse drug reaction), persons” value (gout patients [4]; 10 mg (N = 17)) was 2 persons. The “arthralgia (adverse drug reaction), share of persons” value (gout patients [4]; 10 mg (N = 17)) was 11.76%, the “joint swelling (adverse drug reaction), cases” value (gout patients [4]; 10 mg (N = 17)) was “[1 case]” and the “joint swelling (adverse drug reaction), persons” value (gout patients [4]; 10 mg (N = 17)) was 1 person. The “joint swelling (adverse drug reaction), share of persons” value (gout patients [4]; 10 mg (N = 17)) was 5.88% and the “Number of cases in which creatinine is increased by more than 0.3 mg/dL or more than 1.5 times compared to baseline” value (gout patients [5]) was 3.
In the case of `O=P(O)(O)O.c1cc2c(cn1)NCCO2`, the “form in which the salt was obtained” value [6] is reported as “gel form”.
In the case of `O=S(=O)(O)O.c1cc2c(cn1)NCCO2` [Sulfate], the “purity, 1 week” value ([6]; 30° C., 65% RH) is reported as 99.05%, the “purity, 2 weeks” value ([6]; 30° C., 65% RH) is reported as 99.85% and the “purity, 4 weeks” value ([6]; 30° C., 65% RH) is reported as “melted”. For the same molecule, the “purity, 1 week” value ([6]; 40° C., 75% RH) was “melted”, the “purity, 2 weeks” value ([6]; 40° C., 75% RH) was “melted” and the “purity, 4 weeks” value ([6]; 40° C., 75% RH) was “melted”. For the same molecule, the Initial purity [6] was 98.88%, the “Note (stability verdict)” value ([6]; both conditions, up to 4 weeks) was “unstable” and the “form in which the salt was obtained” value [6] was “solid form”. The “stability test outcome in words” value ([6]; stability test for 4 weeks) was “the solid melted again to a liquid”.
In the case of `Cl.c1cc2c(cn1)NCCO2`, the “form in which the salt was obtained” value [6] is reported as “unstable in a semi-solid form”.
In the case of `O=C(c1cc(Br)c(O)c(Br)c1)N1CCOc2ccncc21` [compound of Formula I, (3,5-dibromo-4-hydroxyphenyl)(2,3-dihydro-4H-pyrido[4,3-b][1,4]oxazin-4-yl)-methanone], the “patients whose serum uric acid level fell below <5.0 mg/dL” value (gout patients [3]; 0.25 mg oral) is reported as “no patient”, the “patients whose serum uric acid level fell below <5.0 mg/dL” value (gout patients [3]; 0.5 mg oral) is reported as “no patient” and the “patients whose serum uric acid level fell below <5.0 mg/dL” value (gout patients [3]; 1 mg oral) is reported as “no patient”. The “percentage” value (gout patients [3]; 2 mg oral) was “about 8%”, the “percentage” value (gout patients [3]; 3 mg oral) was “approximately 23%” and the “percentage” value (gout patients [3]; 5 mg oral) was ~64%. For the same molecule, the “percentage” value (gout patients [3]; 7 mg oral) was ~80% and the “percentage” value (gout patients [3]; 10 mg oral) was ~73%.
In the case of `c1cc2c(cn1)NCCO2` [Free base], the “purity, 1 week” value ([6]; 30° C., 65% RH) is reported as 97.72%, the “purity, 2 weeks” value ([6]; 30° C., 65% RH) is reported as 97.96% and the “purity, 4 weeks” value ([6]; 30° C., 65% RH) is reported as 98.18%. The “purity, 1 week” value ([6]; 40° C., 75% RH) was 97.74%, the “purity, 2 weeks” value ([6]; 40° C., 75% RH) was 97.91% and the “purity, 4 weeks” value ([6]; 40° C., 75% RH) was 98.10%. The Initial purity [6] was 99.36% and the “Note (purity over the stability test)” value ([6]; both conditions, up to 4 weeks) was >97.5%.
